In brackets after ≈: the same amount, converted by molar mass. Structures can show the parent of a compound that is named as a salt. Where two headings read alike, the source gives them in different places.
Columns and labels:
Assay type in all cases: cell-based
S. aureus ATCC 6538 = test: MIC by broth microdilution, S. aureus; conditions: Staphylococcus aureus
Procedure, shortened: (§1)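 MBC measured as cell viability after compound challenge by Miles-Misra drop plating. MIC: broth microdilution at ~5×10^5 cfu/mL final (S. aureus: TSB, CAMHB; E. coli: LB, CAMHB; optional 50 μM zinc sulphate), 24 h at 37° C, 200 rpm, lowest concentration without growth by OD600; biological triplicate.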

S. uberis ATCC 19436 = test: MIC by broth microdilution, S. uberis; conditions: Streptococcus uberis
Procedure, shortened: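 This broth microdilution assay used S. uberis ATCC 19436 in Todd Hewitt Broth, with zinc sulphate heptahydrate added where required to a final 50 μM. Inhibitor concentration ranges came from two-fold serial dilutions in 96-well flat bottom plates at 200 μl. Approximately 5×10^5 cfu/mL cells were incubated for 24 h at 37° C. and 200 rpm. Wells were then read at OD600 on a Varioskan Flash reader.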

E. coli ATCC 10596 = test: MIC by broth microdilution, E. coli; conditions: Escherichia coli
Procedure, shortened: as §1

[1] = ATCC6538, No Zinc, read-out: S. aureus ATCC 6538 MIC
[2] = ATCC6538, Zinc (50 μM), read-out: S. aureus ATCC 6538 MIC
[3] = ATCC19436, No Zinc, read-out: S. uberis ATCC 19436 MIC
[4] = ATCC19436, Zinc (50 μM), read-out: S. uberis ATCC 19436 MIC
[5] = ATCC 10536 / ATCC 10596, No Zinc, read-out: E. coli ATCC 10536 MIC
[6] = ATCC 10536 / ATCC 10596, Zinc (50 μM), read-out: E. coli ATCC 10536 MIC

Compound | MIC (S. aureus ATCC 6538; [1]) | MIC (S. aureus ATCC 6538; [2]) | MIC (S. uberis ATCC 19436; [3]) | MIC (S. uberis ATCC 19436; [4]) | MIC (E. coli ATCC 10596; [5]) | MIC (E. coli ATCC 10596; [6]) | MIC (S. aureus ATCC 6538; ATCC6538, read-out: S. aureus ATCC 6538 MIC, No Zinc) | MIC (S. aureus ATCC 6538; ATCC6538, read-out: S. aureus ATCC 6538 MIC, Zinc (50 μM)) | MIC (S. uberis ATCC 19436; ATCC19436, read-out: S. uberis ATCC 19436 MIC, No Zinc) | MIC (S. uberis ATCC 19436; ATCC19436, read-out: S. uberis ATCC 19436 MIC, Zinc (50 μM)) | MIC (E. coli ATCC 10596; ATCC 10536 / ATCC 10596, read-out: E. coli ATCC 10536 MIC, No Zinc) | MIC (E. coli ATCC 10596; ATCC 10536 / ATCC 10596, read-out: E. coli ATCC 10536 MIC, Zinc (50 μM))
O=S(=O)(Nc1cccc2ccc(CNC3CCCC3)nc12)c1ccc(C(F)(F)F)cc1 [ZDR404, N-(2-((Cyclopentylamino)methyl)quinolin-8-yl)-4-(trifluoromethyl)benzenesulfonamide] | 32 µg/mL (≈ 71.2 µM) | 256 µg/mL (≈ 570 µM) | 16 µg/mL (≈ 35.6 µM) | 0.125 µg/mL (≈ 0.278 µM) | 128 µg/mL (≈ 285 µM) | > 256 µg/mL |  |  |  |  |  | 
CN(C)Cc1ccc2cccc(NS(=O)(=O)c3ccc(Cl)nc3)c2n1 [ZDR322, 6-Chloro-N-(2-((dimethylamino)methyl)quinolin-8-yl)pyridine-3-sulfonamide] | 128 µg/mL (≈ 340 µM) | > 256 µg/mL | > 256 µg/mL | 0.25 µg/mL (≈ 0.663 µM) | > 256 µg/mL | > 256 µg/mL |  |  |  |  |  | 
CC(C)(C)NCc1ccc2cccc(NS(=O)(=O)c3ccc(C(F)(F)F)cc3)c2n1 [ZDR135, N-(2-((tert-Butylamino)methyl)quinolin-8-yl)-4-(trifluoromethyl)benzenesulfonamide] | 32 µg/mL (≈ 73.1 µM) | 64 µg/mL (≈ 146 µM) | 128 µg/mL (≈ 293 µM) | 0.25 µg/mL (≈ 0.571 µM) | > 256 µg/mL | > 256 µg/mL |  |  |  |  |  | 
CN(C)Cc1ccc2cccc(NS(C)(=O)=O)c2n1 [ZDR078, N-(2-((Dimethylamino)methyl)quinolin-8-yl)methanesulfonamide] | > 256 µg/mL | > 256 µg/mL | > 256 µg/mL | 2 µg/mL (≈ 7.16 µM) | > 256 µg/mL | > 256 µg/mL |  |  |  |  |  | 
COC(=O)c1sccc1S(=O)(=O)Nc1cccc2ccc(CN(C)C)nc12 [ZDR319, Methyl 3-(N-(2-((dimethylamino)methyl)quinolin-8-yl)sulfamoyl)thiophene-2-carboxylate] | > 256 µg/mL | > 256 µg/mL | > 256 µg/mL | 1 µg/mL (≈ 2.47 µM) | > 256 µg/mL | > 256 µg/mL |  |  |  |  |  | 
CN(C)Cc1ccc2cccc(NS(=O)(=O)C3CC3)c2n1 [ZDR323, N-(2-((Dimethylamino)methyl)quinolin-8-yl)cyclopropanesulfonamide] | > 256 µg/mL | 256 µg/mL (≈ 838 µM) | > 256 µg/mL | 1 µg/mL (≈ 3.27 µM) | > 256 µg/mL | > 256 µg/mL |  |  |  |  |  | 
C=CCS(=O)(=O)Nc1cccc2ccc(CN(C)C)nc12 [ZDR259, N-(2-((Dimethylamino)methyl)quinolin-8-yl)prop-2-ene-1-sulfonamide] | > 256 µg/mL | 256 µg/mL (≈ 838 µM) | > 256 µg/mL | 0.25 µg/mL (≈ 0.819 µM) | > 256 µg/mL | > 256 µg/mL |  |  |  |  |  | 
CS(=O)(=O)NCc1ccc2cccc(NS(=O)(=O)c3ccc(C(F)(F)F)cc3)c2n1 [ZDR209, N-(2-(Methylsulfonamidomethyl)quinolin-8-yl)-4-(trifluoromethyl)benzenesulfonamide] | > 256 µg/mL | > 256 µg/mL | > 256 µg/mL | 1 µg/mL (≈ 2.18 µM) | > 256 µg/mL | > 256 µg/mL |  |  |  |  |  | 
CN(C)Cc1ccc2cccc(NS(=O)(=O)c3ccc(Cl)s3)c2n1 [ZDR326, 5-Chloro-N-(2-((dimethylamino)methyl)quinolin-8-yl)thiophene-2-sulfonamide] | 32 µg/mL (≈ 83.8 µM) | 128 µg/mL (≈ 335 µM) | 128 µg/mL (≈ 335 µM) | 0.125 µg/mL (≈ 0.327 µM) | 256 µg/mL (≈ 670 µM) | > 256 µg/mL |  |  |  |  |  | 
COCCNCc1ccc2cccc(NS(=O)(=O)c3ccc(C(F)(F)F)cc3)c2n1 [ZDR133, N-(2-(((2-Methoxyethyl)amino)methyl)quinolin-8-yl)-4-(trifluoromethyl)benzenesulfonamide] | 64 µg/mL (≈ 146 µM) | 256 µg/mL (≈ 583 µM) | 64 µg/mL (≈ 146 µM) | 0.25 µg/mL (≈ 0.569 µM) | > 256 µg/mL | 256 µg/mL (≈ 583 µM) |  |  |  |  |  | 
O=S(=O)(Nc1cccc2ccc(CNCCO)nc12)c1ccc(C(F)(F)F)cc1 [ZDR031, N-(2-(((2-Hydroxyethyl)amino)methyl)quinolin-8-yl)-4-(trifluoromethyl)benzenesulfonamide] | 32 µg/mL (≈ 75.2 µM) | 32 µg/mL (≈ 75.2 µM) | 16 µg/mL (≈ 37.6 µM) | 0.5 µg/mL (≈ 1.18 µM) | ≥ 256 µg/mL | > 256 µg/mL |  |  |  |  |  | 
CNC(=O)CNCc1ccc2cccc(NS(=O)(=O)c3ccc(C(F)(F)F)cc3)c2n1 [ZDR270, N-Methyl-2-(((8-((4-(trifluoromethyl)phenyl)sulfonamido)quinolin-2-yl)methyl)amino)acetamide trifluoroacetate] |  |  |  |  |  |  | 32 µg/mL | 32 µg/mL | 16 µg/mL | 4 µg/mL | 128 µg/mL | 256 µg/mL
CN(C)Cc1ccc2cccc(NS(=O)(=O)c3ccc(F)cc3)c2n1 [ZDR065, N-(2-((Dimethylamino)methyl)quinolin-8-yl)-4-fluorobenzenesulfonamide] | 256 µg/mL (≈ 712 µM) | 256 µg/mL (≈ 712 µM) | > 256 µg/mL | 0.125 µg/mL (≈ 0.348 µM) | > 256 µg/mL | > 256 µg/mL |  |  |  |  |  | 
CN(C)CCNCc1ccc2cccc(NS(=O)(=O)c3ccc(C(F)(F)F)cc3)c2n1 [ZDR030, N-(2-(((2-(Dimethylamino)ethyl)amino)methyl)quinolin-8-yl)-4-(trifluoromethyl)benzenesulfonamide] | 16 µg/mL (≈ 35.4 µM) | 16 µg/mL (≈ 35.4 µM) | 16 µg/mL (≈ 35.4 µM) | 1 µg/mL (≈ 2.21 µM) | 128 µg/mL (≈ 283 µM) | ≥ 256 µg/mL |  |  |  |  |  | 
O=S(=O)(Nc1cccc2ccc(CNCc3ccccn3)nc12)c1ccc(C(F)(F)F)cc1 [ZDR035, N-(2-((((Pyridin-2-yl)methyl)amino)methyl)quinolin-8-yl)-4-(trifluoromethyl)benzenesulfonamide] | 4 µg/mL (≈ 8.47 µM) | 4 µg/mL (≈ 8.47 µM) | 2 µg/mL (≈ 4.23 µM) | 1 µg/mL (≈ 2.12 µM) | 32 µg/mL (≈ 67.7 µM) | > 256 µg/mL |  |  |  |  |  | 
CS(=O)(=O)NCCNCc1ccc2cccc(NS(=O)(=O)c3ccc(C(F)(F)F)cc3)c2n1 [ZDR180, N-(2-(((2-(Methylsulfonamido)ethyl)amino)methyl)quinolin-8-yl)-4-(trifluoromethyl)benzenesulfonamide] | 64 µg/mL (≈ 127 µM) | 256 µg/mL (≈ 509 µM) | > 256 µg/mL | 0.5 µg/mL (≈ 0.995 µM) | 128 µg/mL (≈ 255 µM) | > 256 µg/mL |  |  |  |  |  | 

From patent US11691949B2, “Quinoline sulfonamide compounds and their use as antibacterial agents” (OTAGO INNOVATION LIMITED, priority 2017, dated 2023)
